13 compounds from ChEMBL document CHEMBL1777754, “Synthesis and crystallographic analysis of new sulfonamides incorporating NO-donating moieties with potent antiglaucoma action” (Bioorg Med Chem Lett, 2011) can be followed below.

Targets include Carbonic anhydrase 9 (Homo sapiens, UniProt Q16790); Carbonic anhydrase 1 (Homo sapiens, UniProt P00915); Carbonic anhydrase 4 (Homo sapiens, UniProt P22748); Carbonic anhydrase 12 (Homo sapiens, UniProt O43570); Carbonic anhydrase 2 (Homo sapiens, UniProt P00918).
Series [1] in a line: Solubility of the compound in water. It is filed as physicochemical. The following applies: buffer.
Series [2] has as its system Oryctolagus cuniculus. Description: Antiglaucoma activity in New Zealand rabbits assessed as inhibition of carbomer-induced ocular hypertension at 2 % in 50 uL administered into eye after 2 to 3 weeks of carbomer challenge (reference value: 34.2 +/- 1.4 mmHg). It is filed as functional.
In series [3] the test system is Oryctolagus cuniculus. In words: Antiglaucoma activity in New Zealand rabbits assessed as inhibition of carbomer-induced ocular hypertension at 2 % in 50 uL administered into eye after 2 to 3 weeks of carbomer challenge (reference value: 35.3 +/- 1.2 mmHg). It is filed as functional.

In general, Ki refers to the equilibrium dissociation constant of an inhibitor or competing ligand from its target. Read a high Ki as lower affinity.

Carbonic anhydrase 12, sequence (O43570 whole entry): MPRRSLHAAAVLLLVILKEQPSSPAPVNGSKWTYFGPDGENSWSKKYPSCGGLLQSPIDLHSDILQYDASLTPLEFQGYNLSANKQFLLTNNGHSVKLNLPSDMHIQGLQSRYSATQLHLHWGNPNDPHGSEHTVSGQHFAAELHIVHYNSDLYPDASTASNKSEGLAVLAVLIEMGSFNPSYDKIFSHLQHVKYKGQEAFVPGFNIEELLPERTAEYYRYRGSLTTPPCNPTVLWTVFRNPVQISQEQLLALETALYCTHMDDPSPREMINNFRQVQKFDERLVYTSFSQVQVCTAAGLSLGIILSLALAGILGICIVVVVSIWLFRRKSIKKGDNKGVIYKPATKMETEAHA
Carbonic anhydrase 1, sequence (P00915 whole entry): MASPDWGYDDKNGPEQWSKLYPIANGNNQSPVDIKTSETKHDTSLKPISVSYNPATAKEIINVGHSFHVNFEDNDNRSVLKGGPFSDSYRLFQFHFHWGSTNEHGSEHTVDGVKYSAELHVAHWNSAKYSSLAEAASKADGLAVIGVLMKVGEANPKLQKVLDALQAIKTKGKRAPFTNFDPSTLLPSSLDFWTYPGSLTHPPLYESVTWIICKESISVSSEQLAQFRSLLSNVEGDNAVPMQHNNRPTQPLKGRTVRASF
Carbonic anhydrase 4, sequence (P22748 whole entry): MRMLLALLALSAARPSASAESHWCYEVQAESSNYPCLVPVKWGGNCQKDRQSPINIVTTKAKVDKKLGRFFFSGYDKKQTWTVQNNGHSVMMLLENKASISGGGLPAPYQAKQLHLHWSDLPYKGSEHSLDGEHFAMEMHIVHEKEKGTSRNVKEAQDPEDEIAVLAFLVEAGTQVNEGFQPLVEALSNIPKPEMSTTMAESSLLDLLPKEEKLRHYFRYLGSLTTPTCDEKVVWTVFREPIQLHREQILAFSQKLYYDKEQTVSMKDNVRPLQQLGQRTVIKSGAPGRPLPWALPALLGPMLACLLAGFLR
Description for Carbonic anhydrase 12: Inhibition of human recombinant CA12 catalytic domain by CO2 hydration assay
Description for Carbonic anhydrase 2: Inhibition of human CA2 by CO2 hydration assay
Description for Carbonic anhydrase 4: Inhibition of human CA4 by CO2 hydration assay
Description for Carbonic anhydrase 9: Inhibition of human recombinant CA9 catalytic domain by CO2 hydration assay

With `NS(=O)(=O)c1nnc(NS(=O)(=O)c2cccc(C(=O)OCCCCO[N+](=O)[O-])c2)s1`, the Ki at Carbonic anhydrase 9 is 235 nM; at Carbonic anhydrase 1 it was 40 nM; at Carbonic anhydrase 4 it was 154 nM; on Carbonic anhydrase 12 it was 31 nM.
Consider `NS(=O)(=O)c1ccc(OCCCO[N+](=O)[O-])cc1`, for which the Ki amounted to 88 nM on Carbonic anhydrase 2; 83 nM at Carbonic anhydrase 9; 587 nM at Carbonic anhydrase 1; 148 nM on Carbonic anhydrase 4; 83 nM at Carbonic anhydrase 12.
For `NS(=O)(=O)c1ccc(C(=O)OCCCCO[N+](=O)[O-])cc1`, the Ki was determined as 18 nM on Carbonic anhydrase 2; 165 nM on Carbonic anhydrase 9; 189 nM on Carbonic anhydrase 1; 44 nM on Carbonic anhydrase 4; 30 nM at Carbonic anhydrase 12. For the same compound, the solubility in series [1] is on record as 2%. The Activity with Oryctolagus cuniculus [2] is 20.6 mmHg.
For the compound `NS(=O)(=O)c1ccc(C(=O)OCc2ccc(CO[N+](=O)[O-])cc2)cc1`, the Ki at Carbonic anhydrase 2 came out at 198 nM; on Carbonic anhydrase 9, 253 nM; at Carbonic anhydrase 1 it was 242 nM; on Carbonic anhydrase 4, 345 nM; at Carbonic anhydrase 12, 147 nM.
As for `COc1cc(/C=C/C(=O)OCCCCO[N+](=O)[O-])ccc1OC(=O)c1ccc(S(N)(=O)=O)cc1`, the Ki at Carbonic anhydrase 2 is 10 nM; on Carbonic anhydrase 9, 11 nM; at Carbonic anhydrase 1, 15 nM; on Carbonic anhydrase 4 it was 47 nM; at Carbonic anhydrase 12, 19 nM. In addition, the solubility in series [1] is recorded as > 0.3%.
On to `COc1cc(/C=C/C(=O)OCCCCO[N+](=O)[O-])ccc1OC(=O)c1cccc(S(=O)(=O)Nc2nnc(S(N)(=O)=O)s2)c1`, for which the Ki at Carbonic anhydrase 2 is 33 nM; at Carbonic anhydrase 9, 177 nM; at Carbonic anhydrase 1, 137 nM; on Carbonic anhydrase 4, 225 nM; on Carbonic anhydrase 12 it was 42 nM.
Consider `NS(=O)(=O)c1nnc(NS(=O)(=O)c2ccc(C(=O)OCCCCO[N+](=O)[O-])cc2)s1`, for which the Ki on Carbonic anhydrase 2 turned out to be 10 nM; at Carbonic anhydrase 9 it was 10 nM; on Carbonic anhydrase 1, 32 nM; at Carbonic anhydrase 4, 46 nM; on Carbonic anhydrase 12, 31 nM.
With `COc1cc(/C=C/C(=O)OCCCCO[N+](=O)[O-])ccc1OC(=O)c1ccc(S(=O)(=O)Nc2nnc(S(N)(=O)=O)s2)cc1`, the Ki at Carbonic anhydrase 2 was 14 nM; on Carbonic anhydrase 9, 11 nM; on Carbonic anhydrase 1 it was 43 nM; at Carbonic anhydrase 4, 38 nM; on Carbonic anhydrase 12, 43 nM.
In the case of `COc1cc(/C=C/C(=O)OCCCCO[N+](=O)[O-])ccc1OC(=O)CCc1ccc(S(N)(=O)=O)cc1`, the Ki at Carbonic anhydrase 2 came out at 101 nM; at Carbonic anhydrase 9, 93 nM; on Carbonic anhydrase 1, 395 nM; on Carbonic anhydrase 4, 139 nM; at Carbonic anhydrase 12 it was 87 nM.
Taken in the same sequence, the figures for `NS(=O)(=O)c1ccc(OCCCCO[N+](=O)[O-])cc1` were 12 nM, 25 nM, 41 nM, 76 nM and 29 nM.
Taken in the same sequence, the figures for `NS(=O)(=O)c1ccc(OCCCCCO[N+](=O)[O-])cc1` were 71 nM, 85 nM, 950 nM, 89 nM and 116 nM.
Compound `CCN(CC)CCOC(=O)c1ccc(S(=O)(=O)Nc2nnc(S(N)(=O)=O)s2)cc1` came in with a Ki on Carbonic anhydrase 2 of 1.4 nM.
On to `O=[N+]([O-])O[C@@H]1CO[C@H]2[C@@H]1OC[C@@H]2O` [ISOSORBIDE MONONITRATE], for which, in the series on Oryctolagus cuniculus [3], the Activity was found to be 28.4 mmHg.
